# Reference: PMC2033597, “The Arg-Gly-Asp-containing peptide, rhodostomin, inhibits in vitro cell adhesion to extracellular matrices and platelet aggregation caused by saos-2 human osteosarcoma cells” (British Journal of Cancer, 1995)
# Read-outs that look alike come from different tables or passages of the source.
# How the values were obtained:
# [1] = tested on: Saos-2 tumour cell-induced platelet aggregation in heparinised human platelet-rich plasma; type: cell-based; details: for IC50: heparinised human PRP preincubated with peptide at 37C for 2 min, then Saos-2 cells, n = 6, read-out: IC50 for inhibition of Saos-2 TCIPA
# Source text: Brils JownW d Canmer (15) 71, 265-270 ? 1995 S9okon Press Al rghts reserved 0007-0920/95 $9.00 V The Arg-Gly-Asp-containing peptide, rhodostomin, inhibits in vitro cell adhesion to extracellular matrices and platelet aggregation caused by Saos-2 human osteosarcoma cells H-S Chiang', R-S Yang2 and T-F Huang' 'Pharmacological Institute and 'Department of Orthopaedics, College of Medicine, National Taiwan UniversitY, Taipei, Taiwan. Sumary Saos-2 cells, derived from a primary human osteosarcoma, caused dose-dependent platelet aggrega- tion in heparinised human platelet-rich plasma. […] The cell suspension shortened the plasma recalcification times of normal, factor VIII-deficient and factor IX-deficient human plasmas in a dose- dependent manner. […] Moreover, a monoclonal antibody (MAb) against human tissue factor completely abolished TCIPA. […] Keywords: osteosarcoma; platelet aggregation; tissue factor: integrin; extracellular matrix: Arg-Gly-Asp- containing peptide The formation of a metastatic lesion is the result of a com- plex series of events called the 'metastatic cascade'. Following intravasation, circulating tumour cells interact with a variety of host cells such as effectors of the cellular immune res- ponses, endothelial cells and platelets. The interaction of tumour cells and host platelets may promote the metastatic process (Honn et al., 1992). Indeed, there is evidence that the incidence of lymph node metastasis caused by ten cell lines, from rat renal carcinoma, in vivo correlates well with their ability to induce platelet aggregation in vitro (Pearlstein et al., 1980). Platelets may enhance tumour cell adhesion to endothelial cells and subendothelial surfaces during the haematogenous metastasis process. The cell-cell or cell-extracellular matrix (ECM) interactions of both normal and tumour cells have been proven to be mediated by a variety of plasma memb- rane receptors including the integrin family (Hynes et al., 1987). Integrins are transmembrane proteins which link the ECM with the cell cytoskeleton. Such linkage enables cellular attachment to substrata and forms focal adhesion plaques in distinct plasma membrane regions which establish contact with the matrix (Grunicke, 1990). […] Purified components from snake venoms have been widely studied and found to affect platelet function, including trigramin-like anti-platelet peptides (Huang et al., 1987a, 1991a,b; Shebuski et al., 1989; Rucinski et al., 1990). Trigra- min, an RGD-containing peptide purified from venom of the Trimeresurus gramineus snake, is a specific antagonist of platelet membrane […] (Huang et al., 1987a, 1989). […] These peptides all contain the RGD sequence, are rich in cysteine and bind with high affinity to the surface of platelets. The in vitro metastatic characterisation of osteosarcoma is not yet well understood. In the present study, we examined in vitro the TCIPA caused by Saos-2 human osteosarcoma cells. We probed Saos-2 TCIPA with a variety of inhibitors and monoclonal antibodies in order to characterise fully the mechanism of this phenomenon. […] Materals and metbods Materials Saos-2 human osteosarcoma cells were obtained from ATCC (American Type Culture Collection) Laboratory. Crude venom of Agkistrodon rhodostoma (or Calloselasma rhodos- toma) was purchased from Latoxan (Rosans, France) and stored at -20?C. Rhodostomin was purified from venom of A. rhodostoma as previously described (Huang et al., 1989, 1990). GRGDS was purchased from Peninsula Laboratories, CA, USA. Gly-Arg-Gly-Glu-Ser (GRGES) was synthesised by the Biochemical Institute, College of Medicine, National Taiwan University. Apyrase (grade III), heparin, hirudin (grade IV from leeches), fibronectin (from bovine plasma), vitronectin (from human plasma), laminin (from basement membrane of mouse sarcoma), collagen type I (from calf skin) and type IV were obtained from Sigma (St Louis, MO, USA). Tissue thromboplastin reagent was Simplastin Excel standard (Organon Teknika, NC, USA). […]
# [2] = tested on: Saos-2 cell adhesion to RGD-dependent ECM; assay: Saos-2 cell adhesion to RGD-dependent ECM (overall); type: cell-based, human; details: fibronectin, vitronectin, collagen type I
# Source text: Brils JownW d Canmer (15) 71, 265-270 ? 1995 S9okon Press Al rghts reserved 0007-0920/95 $9.00 V The Arg-Gly-Asp-containing peptide, rhodostomin, inhibits in vitro cell adhesion to extracellular matrices and platelet aggregation caused by Saos-2 human osteosarcoma cells H-S Chiang', R-S Yang2 and T-F Huang' 'Pharmacological Institute and 'Department of Orthopaedics, College of Medicine, National Taiwan UniversitY, Taipei, Taiwan. Sumary Saos-2 cells, derived from a primary human osteosarcoma, caused dose-dependent platelet aggrega- tion in heparinised human platelet-rich plasma. […] The cell suspension shortened the plasma recalcification times of normal, factor VIII-deficient and factor IX-deficient human plasmas in a dose- dependent manner. […] Moreover, a monoclonal antibody (MAb) against human tissue factor completely abolished TCIPA. […] Keywords: osteosarcoma; platelet aggregation; tissue factor: integrin; extracellular matrix: Arg-Gly-Asp- containing peptide The formation of a metastatic lesion is the result of a com- plex series of events called the 'metastatic cascade'. Following intravasation, circulating tumour cells interact with a variety of host cells such as effectors of the cellular immune res- ponses, endothelial cells and platelets. The interaction of tumour cells and host platelets may promote the metastatic process (Honn et al., 1992). […]
molecule,measurement,setting,value
"N=C(N)NCCC[C@H](NC(=O)CN)C(=O)NCC(=O)N[C@@H](CC(=O)O)C(=O)N[C@@H](CO)C(=O)O [GRGDS, Gly-Arg-Gly-Asp-Ser]",IC50,[1],560 µM
"Gly-Arg-Gly-Glu-Ser [GRGES, peptide synthesised by the Biochemical Institute, National Taiwan University]",Inhibition of Saos-2 TCIPA,"[1]; GRGES 1 mg ml-1, pretreatment of platelets",no significant effect
apyrase,Inhibition of Saos-2 TCIPA,"[1]; apyrase 0.5 U ml-1 final concentration in PRP, preincubated at 37C for 2 min",did not inhibit
same,Lag phase preceding TCIPA,[1]; apyrase 0.5 U ml-1 in PRP,prolonged
heparin,Lag phase preceding platelet aggregation,[1]; heparin raised from 1 to 6 units ml-1 (data not shown),markedly prolonged
hirudin,Inhibition of Saos-2 TCIPA,"[1]; hirudin 5 U ml-1, PRP preincubated at 37C for 2 min",completely inhibited
rhodostomin,IC50,[1],0.03 µM
same,"Potency relative to GRGDS in inhibiting TCIPA, on a molar basis",[1]; ratio of IC50 values,about 18 000 fold
same,Inhibition of Saos-2 TCIPA,"[1]; rhodostomin, pretreatment of platelets",complely inhibited
same,"Potency relative to GRGDS in inhibiting Saos-2 cell adhesion to RGD-dependent ECM, on a molar basis",[2],~1000 fold
